From patent publication US5792882A, “Phenoxyphenyl cyclopentenyl hydroxyureas” (Pfizer Inc., priority 1993, dated 1998)

What was measured:
5-lipoxygenase (LO) = biological target: T1, 5-lipoxygenase (LO) (Homo sapiens, UniProt P09917); test: In vitro assay using heparinized human whole blood (HWB); type: cell-based; conditions: calcium ionophore stimulated, 10 min preincubation at 37° C., read-out: IC50, inhibition of 5-lipoxygenase metabolism of arachidonic acid
T1 construct: Aliquots of heparinized human whole blood (1 ml) from healthy donors; endogenous in cells; host or cells: heparinized human whole blood from healthy donors
T1 sequence (P09917 1-674): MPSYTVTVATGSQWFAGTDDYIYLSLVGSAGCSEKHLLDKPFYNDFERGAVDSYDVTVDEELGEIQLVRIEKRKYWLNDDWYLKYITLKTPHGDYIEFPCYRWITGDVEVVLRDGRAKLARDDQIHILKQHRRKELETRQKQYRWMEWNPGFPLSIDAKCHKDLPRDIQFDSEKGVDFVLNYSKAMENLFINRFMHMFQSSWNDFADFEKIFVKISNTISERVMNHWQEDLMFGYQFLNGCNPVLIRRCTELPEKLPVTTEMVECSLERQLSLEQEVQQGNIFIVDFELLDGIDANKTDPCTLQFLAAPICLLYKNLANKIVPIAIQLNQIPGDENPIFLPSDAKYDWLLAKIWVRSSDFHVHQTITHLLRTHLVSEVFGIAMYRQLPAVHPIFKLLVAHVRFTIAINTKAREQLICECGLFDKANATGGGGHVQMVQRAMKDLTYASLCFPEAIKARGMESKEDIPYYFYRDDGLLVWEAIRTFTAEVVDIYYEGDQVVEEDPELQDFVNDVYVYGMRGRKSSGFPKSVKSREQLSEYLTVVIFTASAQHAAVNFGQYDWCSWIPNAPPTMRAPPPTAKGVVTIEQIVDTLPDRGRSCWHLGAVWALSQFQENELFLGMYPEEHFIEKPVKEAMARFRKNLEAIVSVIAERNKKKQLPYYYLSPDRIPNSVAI
Method: 1) In vitro assay using heparinized human whole blood (HWB)
Aliquots of heparinized human whole blood (1 ml) from healthy donors were preincubated with drugs dissolved in dimethyl sulfoxide (final concentration, 0.1%) for 10 min at 37° C., then calcium ionophore […] (60 μM) and Heparapid (2.5%, Sekisui Chemical Co. LTD., Japan) were added and incubations were continued for further 30 min. Reactions were terminated by rapid cooling in an ice bath. Blood-clots induced by Heparapid were removed by centrifugation. Acetonitrile (ACN, 1.5 ml) and PGB2 (200 ng, as internal standard) were added to supernatants. Samples were mixed by Voltex mixer and precipitated proteins were removed by centrifugation. Supernatants were diluted to 15% ACN with water and were loaded onto prewashed Sep-Pak C18 cartridge (Waters Associates, Milford, Miss., USA) and arachidonate metabolites were eluted with 4 ml of 70% methanol. Methanolic extract was evaporated and the residue was then reconstituted in 250 μl of 67% ACN.
ACN reconstituents (100 μl) were injected onto a reversed phase C18 column (Wakosil SC18, 4.6×150 mm, Wako Pure Chemical Industries LTD, Japan). Column temperature was 40° C. HPLC analysis was performed by Hewlett Packard model 1090M HPLC system. The chromatographic was achieved by gradient elution using two different mobile phase ( mobile phase A consisted of 10% ACN, 0.1% trifluoroacetic acid and 0.05% triethylamine; mobile phase B consisted of 80% ACN, 0.1% trifluoroacetic acid and 0.05% triethylamine). Each mobile phase was continuously sparged with helium. The HPLC gradient was programmed as follows (where A+B=100): from 0 to 9.7 min, a linear gradient from 35 to 100% of […] with flow rate of 1 ml/min. Peaks of eluting products were quantitated by UV absorbance (LTB4 and PGB2 at 275 nm; HHT and 5-HETE at 235 nm, respectively) and were corrected by PGB2 recovery. Linear regression was used to estimate IC50 values. […]

[1] = test system: platelet activating factor (PAF) induced lethality; test: PAF induced lethality in mice, test compound administered orally; type: in vivo, ICR mice (male); conditions: Mus musculus, oral administration 45 min prior to PAF injection (12 μg/Kg i.v.), mortality 1 hr after PAF
Method: 2) In vivo system measuring effects of test compound administered orally against platelet activating factor (PAF) induced lethality in mice
The in vivo potency after oral administration of test compounds to ICR mice (male) was determined using the PAF lethality assay in a similar manner as that described in the following articles: J. M. Young, P. J. Maloney, S. N. Jubb, and J. S. Clark, Prostaglandins, 30, 545 (1985); M. Criscuoli and A. Subissi, Br. J. Pharmac., 90, 203 (1987); and H. Tsunoda, S. Abe, Y. Sakuma, S. Katayama and K. Katayama, Prostaglandins Leukotrienes and Essential Fatty Acids, 39, 291 (1990). PAF was dissolved at a concentration of 1.2 μg/ml in 0.05 mg/ml propranolol-saline containing 0.25% bovine serum albumin (BSA) and injected intravenously into mice at a dose of 12 μg/Kg. Mortality was determined 1 hr after PAF injection. To investigate the effect of 5-LO inhibitors, compounds were dissolved in 5% tween 80, 5% EtOH-saline and administered orally (0.1 ml/10 g) 45 min prior to PAF injection. Linear regression was used to estimate ED50 values.

Structure (SMILES): NC(=O)N(O)C1C=C(c2cccc(Oc3ccc(F)cc3)c2)CC1 (single isomer, unassigned; (+)) [Example 1, (+)-N-[3-[3-(4-Fluorophenoxy)phenyl]-2-cyclopenten-1-yl]-N-hydroxyurea]
- IC50 (5-lipoxygenase (LO)): ~500 nM
- ED50 [1]: 1 to 10 mg/kg

Structure (SMILES): NC(=O)N(O)C1C=C(c2cccc(Oc3ccccc3)c2)CC1 (single isomer, unassigned; (+)) [Example 2, (+)-N-[3-(3-Phenoxyphenyl)-2-cyclopenten-1-yl]-N-hydroxyurea]
- IC50 (5-lipoxygenase (LO)): ~500 nM
- ED50 [1]: 1 to 10 mg/kg

Structure (SMILES): NC(=O)N(O)C1C=C(c2cccc(Oc3ccc(Cl)cc3)c2)CC1 (single isomer, unassigned; (+)) [Example 3, (+)-N-[3-[3-(4-Chlorophenoxy)phenyl]-2-cyclopenten-1-yl]-N-hydroxyurea]
- IC50 (5-lipoxygenase (LO)): ~500 nM
- ED50 [1]: 1 to 10 mg/kg
